Reference: patent publication EP0156772A2, “Novel pharmaceutical use for CGRPs” (SANDOZ AG, priority 1984, dated 1985)

How the values were obtained:
[1] = Continuous on-line measurement of free calcium concentrations in the extra-corporeal blood circulation; type: in vivo, young rabbits; conditions: for calcaemic response: rat CGRP i.v.
Method: • The general scheme for this test is represented in figure 1 attached: • A flow-through electrode system with two Ca2+^-selective liquid membrane electrodes is inserted in the arterio-venous extracor- poreal blood circulatory system of the test animal this being established by means of indwelling catheters connecting the femoral artery with femoral vein.
The blood is pumped from the artery to the vein at a flow rate of 18 ml/h through the system containing Ca2+^-selective electrodes. A second peristaltic pump aspirates the reference solution of electrolytes, which is transported at a flow rate of 0.9 ml/h, passing the compartment of the reference electrode and mixed with the circulating blood at the site of the common electrode. The mixed fluids are then returned into the ciculatory system of the animal.
The Ca2+^-selective electrode allows the potentiometric measurement of the ionized calcium quantitatively. The potential difference between the reference electrode and the Ca2+^-selective electrode is measured differentially relative to the common electrode. The analogue signal of the difference amplifier is processed by a digital voltmeter. Results are obtained in mV and are continously recorded as a function of time. The voltage difference is […].
Following administration of CGRPs i.v. to the test animal, a potent influence on Ca2+ concentration over extended periods of time and up to at least 5 hours is observed at dosages of from about 0.1 to about 25 µg/kg. More importantly results observed indicate that CGRPs exert both a hypo- and hyper-calcaemic effect which is both dose- and time-dependent. […] Specific results obtained following Ix administration of rat CGRP at varying dosages and illustrating activity profile are shown in the accompanying Figs. 2 through 5. • In all cases administration of test substance occurs at time • Fig.2 .: This is a plot for observed change in calcium level [Δ% calcaemia] with time, following i.v. administration of rat CGRP at dosages of from 0.156 µg/kg to 5.0 µg/kg.

[2] = Clinical trial A: human CGRP in active Paget's disease, serum parameters prior and post administration; type: in vivo, volunteer subjects (male and female)
Method: Human CGRP is employed as trial substance and is tested by administration in accordance with the following regimens.
The following parameters are measured prior and post-administration: circulating calcium serum levels: alkaline phosphatase: hydroxyproline: bone specific protein levels.

[3] = Clinical trial B: human CGRP s.c. accompanied by salmon or human calcitonin; type: in vivo, volunteer subjects (male and female); conditions: human CGRP s.c. 10 to 200 µg accompanied by salmon or human calcitonin 5 to 100 I.U. (or M.R.C) s.c. or i.m.
Text: The methodology of clinical trial A is repeated, with administration of human CGRP in accordance with regimen 1.3. In this trial however administration is accompanied by administration of salmon or human calcitonin at dosages of from 5 to 100 I.U. (or M.R.C), [e.g. at dosages of 5, 10, 25, 50 or 100 I.U. (or M.R.C.)] administered by injection either s.c. or i.m.

CC(C)C[C@H](NC(=O)CNC(=O)[C@H](C)NC(=O)[C@H](CC(C)C)NC(=O)[C@H](CCCNC(=N)N)NC(=O)[C@H](Cc1c[nH]cn1)NC(=O)[C@@H](NC(=O)[C@@H](NC(=O)[C@@H]1CSSC[C@H](NC(=O)[C@@H](N)CO)C(=O)N[C@@H](CC(N)=O)C(=O)N[C@@H]([C@@H](C)O)C(=O)N[C@@H](C)C(=O)N[C@@H]([C@@H](C)O)C(=O)N1)C(C)C)[C@@H](C)O)C(=O)N[C@@H](CC(C)C)C(=O)N[C@@H](CO)C(=O)N[C@@H](CCCNC(=N)N)C(=O)N[C@@H](CO)C(=O)NCC(=O)NCC(=O)N[C@H](C(=O)N[C@H](C(=O)N[C@@H](CCCCN)C(=O)N[C@@H](CC(=O)O)C(=O)N[C@@H](CC(N)=O)C(=O)N[C@@H](Cc1ccccc1)C(=O)N[C@H](C(=O)N1CCC[C@H]1C(=O)N[C@H](C(=O)N[C@@H](CC(N)=O)C(=O)N[C@H](C(=O)NCC(=O)N[C@@H](CO)C(=O)N[C@@H](CCC(=O)O)C(=O)N[C@@H](C)C(=O)N[C@@H](Cc1ccccc1)C(N)=O)C(C)C)[C@@H](C)O)C(C)C)C(C)C)C(C)C [rat CGRP]
AUCS (areas under curve) ([1]; Fig. 2, i.v., 0.156 µg/kg to 5.0 µg/kg, calcium level versus time): statistically linear
observed change in calcium level [Δ% calcaemia] ([1]; Fig. 2, i.v., dosages of from 0.156 µg/kg to 5.0 µg/kg): decrease (hypocalcaemia)
observed change in calcium level after the initial hypocalcaemic response ([1]; Fig. 5, 10 pg/kg i.v.): reverse hypercalcaemic response which continues very strongly
hypocalcaemic response ([1]; Fig. 5, 10 pg/kg i.v., compared with untreated control): though strongly marked, is transitory only
duration of hypercalcaemic response following initial administration ([1]; Fig. 5, 10 pg/kg i.v., printed 'up to at least 5 hours'): at least 5 hours
observed change in calcium level ([1]; Figs 3 to 4, i.v., 2.5 and 5.0 µg/kg, groups of four test animals, compared with untreated controls): hypocalcaemia is again observed
calcaemic response [1]: primarily hypo- calcaemic response
calcaemic response ([1]; dosages in excess of 5 µg/kg): primarily hyper-calcaemic response preceeded by a transient hypo-calcaemic response at the lower end of the dosage range

CC(C)C[C@H](NC(=O)CNC(=O)[C@H](C)NC(=O)[C@H](CC(C)C)NC(=O)[C@H](CCCNC(=N)N)NC(=O)[C@H](Cc1c[nH]cn1)NC(=O)[C@@H](NC(=O)[C@@H](NC(=O)[C@@H]1CSSC[C@H](NC(=O)[C@H](C)N)C(=O)N[C@@H](CC(=O)O)C(=O)N[C@@H]([C@@H](C)O)C(=O)N[C@@H](C)C(=O)N[C@@H]([C@@H](C)O)C(=O)N1)C(C)C)[C@@H](C)O)C(=O)N[C@@H](CC(C)C)C(=O)N[C@@H](CO)C(=O)N[C@@H](CCCNC(=N)N)C(=O)N[C@@H](CO)C(=O)NCC(=O)NCC(=O)N[C@H](C(=O)N[C@H](C(=O)N[C@@H](CCCCN)C(=O)N[C@@H](CC(N)=O)C(=O)N[C@@H](CC(N)=O)C(=O)N[C@@H](Cc1ccccc1)C(=O)N[C@H](C(=O)N1CCC[C@H]1C(=O)N[C@H](C(=O)N[C@@H](CC(N)=O)C(=O)N[C@H](C(=O)NCC(=O)N[C@@H](CO)C(=O)N[C@@H](CCCCN)C(=O)N[C@@H](C)C(=O)N[C@@H](Cc1ccccc1)C(N)=O)C(C)C)[C@@H](C)O)C(C)C)C(C)C)C(C)C [human CGRP]
observed change in calcium level, course of response ([1]; Fig. 6, i.v., 2.5 µg/kg, groups of 6 animals): parallels that recorded for rat CGRP in Fig. 5
circulating serum calcium levels ([2]; i.v. 0.1 to 20 µg, i.v. infusion 10 to 100 µg, s.c. 10 to 200 µg, intranasal 10 to 500 µg, or s.c. daily for 5 to 7 days): significant reduction
alkaline phosphatase levels ([2]; same regimens): concomitant reduction
hydroxyproline levels ([2]; same regimens): concomitant reduction
bone specific proteins ([2]; same regimens, in particular proteins reflecting bone metabolic turn over): marked reduction
influence on measured serum parameters [3]: observed in this trial as in trial A
reduction of circulating serum calcium levels ([3]; compared with salmon calcitonin alone): superior to that observed on administration of salmon calcitonin alone
